*1 amine or outer side, *2 acyl side, *3 side chain or, on linkers, in order; H or OH if unused. Where a SMILES comes first, the peptide text is derived from it. The star is where a group is joined. C22 diacid = O=C(O)CCCCCCCCCCCCCCCCCCCCC(=O)*; C20 diacid = O=C(O)CCCCCCCCCCCCCCCCCCC(=O)*; C18 diacid = O=C(O)CCCCCCCCCCCCCCCCC(=O)*; γGlu = O=C(O)[C@H](CCC(=O)[*:2])N[*:1]; βAsp = O=C(O)[C@H](CC(=O)[*:2])N[*:1]
Assays:
[1] = Heat accelerated stability assay under a neutral condition; type: physicochemical; conditions: pH about 7.4, 40°C; for Changes in characteristics or properties, 0d / Changes in characteristics or properties, 7d: 1 mg/mL, phosphate; for Concentration change (7d-0d)/%: Day 7 vs Day 0, reversed phase chromatography; for Purity Change% (7d-0d) / Purity Change% (26d-0d): purity from reversed phase chromatography-214 nm; for Purity Change% (7d-0d): Day 7 vs Day 0; for Purity Change% (26d-0d): Day 26 vs Day 0
Procedure: The lyophilized powder (1 mg/mL) of calcitonin analogues or derivatives prepared in accordance with the method of Example 1 were mixed with sodium dihydrogen phosphate (1.42 mg/mL) and dissolved in ultrapure water in the indicated mass-volume ratios. After adjusting pH to about 7.4 with hydrochloric acid/sodium hydroxide, the solution was filtered into a sterilized vial in a clean bench using a 0.22 µm sterile filter. The vial was then capped and placed into the stability test chamber at 40°C. Detections were made on Days 7 (7d) and 26 (26d), and during the assay, changes in the characteristics and properties of the polypeptides were observed and recorded. The sample was then centrifuged for 3 min at 10000 rpm at 4°C, and the supernatant was transferred to a liquid phase sample vial for detecting the concentration and purity of the polypeptides using liquid phase chromatography described as below, wherein the concentration of the polypeptide = peak area/injection volume/extinction coefficient/60×flow rate, and the purity of the polypeptide = target peak area/total peak area× 100%.
Conditions of the reversed phase chromatography Flow rate: 1.0 ml/min; Autosampler temperature: 15°C; Column temperature: 25°C; Detection wavelengths: 280 nm and 214 nm; Mobile phase A: 100% H2O+0.05% TFA; Mobile phase B: 100% ACN; and Gradient of elution listed in Table 4: Table 4. Listing of the gradient of elution in the liquid phase chromatography
Results were shown below in Tables 5, 6, and 7. A difference of more than 5% in content as compared with the initial value was typically assumed (for example, as prescribed by the Chinese Pharmacopeia (2020 Edition)) to be a significant change. Within a reasonable margin of error, a decrease of less than 1% from the initial value to the detected content is denoted as "no change" below. Table 5. Changes in characteristics or properties in the heat accelerated stability assay

[2] = molecular target: T1, human amylin receptors (Homo sapiens, UniProt O60896+P30988); assay: Luciferase assay of amylin (amylin receptor/CRE-luc cell line); type: cell-based; conditions: stably transfected amylin receptor/CRE-luc CHO cells (CHO-K1/Gal5/AMY3), 24 hours incubation, luciferase readout;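 note: agonist potency from luminescence of cAMP response element-driven luciferase, EC50 derived from a standard curve of signal versus compound concentration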
T1 sequence (P30988 25-474): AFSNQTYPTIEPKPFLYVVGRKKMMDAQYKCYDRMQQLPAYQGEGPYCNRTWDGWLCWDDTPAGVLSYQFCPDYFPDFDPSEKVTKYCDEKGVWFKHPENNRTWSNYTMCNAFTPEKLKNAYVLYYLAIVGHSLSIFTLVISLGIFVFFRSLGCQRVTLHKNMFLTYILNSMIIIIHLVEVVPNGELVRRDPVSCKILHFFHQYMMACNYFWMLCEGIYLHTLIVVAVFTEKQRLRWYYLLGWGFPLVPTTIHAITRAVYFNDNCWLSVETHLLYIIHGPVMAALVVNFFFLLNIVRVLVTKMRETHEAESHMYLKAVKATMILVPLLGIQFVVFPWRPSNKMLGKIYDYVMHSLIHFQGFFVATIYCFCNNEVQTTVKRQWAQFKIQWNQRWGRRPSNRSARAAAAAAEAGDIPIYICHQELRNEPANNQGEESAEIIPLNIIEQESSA
T1 sequence (O60896 24-148 partner): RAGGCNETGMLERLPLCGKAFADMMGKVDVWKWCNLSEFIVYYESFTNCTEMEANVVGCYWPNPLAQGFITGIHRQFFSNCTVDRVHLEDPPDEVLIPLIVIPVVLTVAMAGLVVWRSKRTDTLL

Row | Structure (SMILES) | Changes in characteristics or properties, 0d [1] | Changes in characteristics or properties, 7d [1] | Purity Change% (26d-0d) [1] [%] | EC50 [2] [nM] | Concentration change (7d-0d)/% [1] | Purity Change% (7d-0d) [1]
1 | CC(C)C[C@H](NC(=O)[C@H](CCCNC(=N)N)NC(=O)CNC(=O)[C@H](CC(C)C)NC(=O)[C@@H](NC(=O)[C@H](C)NC(=O)[C@@H](NC(=O)[C@H](CO)NC(=O)[C@H](CC(C)C)NC(=O)[C@H](CCC(N)=O)NC(=O)[C@H](CO)NC(=O)[C@H](C)NC(=O)CC[C@H](NC(=O)CCCCCCCCCCCCCCCCC(=O)O)C(=O)O)[C@@H](C)O)C(C)C)C(=O)N[C@@H](CO)C(=O)N[C@@H](CC(=O)O)C(=O)N[C@@H](CCC(=O)O)C(=O)N[C@@H](CC(C)C)C(=O)N[C@@H](Cc1c[nH]cn1)C(=O)N[C@@H](CCCNC(=N)N)C(=O)N[C@@H](CC(C)C)C(=O)N[C@@H](CCC(N)=O)C(=O)N[C@@H](CC(=O)O)C(=O)N[C@@H](Cc1ccc(O)cc1)C(=O)N1CCC[C@H]1C(=O)N[C@@H](CCCNC(=N)N)C(=O)N[C@H](C(=O)N[C@@H](CC(=O)O)C(=O)N[C@H](C(=O)NCC(=O)N[C@@H](CO)C(=O)NCC(=O)N[C@@H](CO)C(=O)N1CCC[C@H]1C(N)=O)C(C)C)[C@@H](C)O [M39] ({C18 diacid-γGlu}-ASQLSTAVLGRLSDELHRLQDYPRTDVGSGSP-NH2) | Clear | Clear | -3.3 | 0.016 | No change (a decrease of less than 1% from the initial value to the detected content is denoted as "no change") | No change (a decrease of less than 1% from the initial value to the detected content is denoted as "no change")
2 | CC(C)C[C@H](NC(=O)[C@H](CCCNC(=N)N)NC(=O)CNC(=O)[C@H](CC(C)C)NC(=O)[C@@H](NC(=O)[C@H](C)NC(=O)[C@@H](NC(=O)[C@H](CO)NC(=O)[C@H](CC(C)C)NC(=O)[C@H](CCC(N)=O)NC(=O)[C@H](CO)NC(=O)[C@H](C)NC(=O)C[C@H](NC(=O)CCCCCCCCCCCCCCCCCCC(=O)O)C(=O)O)[C@@H](C)O)C(C)C)C(=O)N[C@@H](CO)C(=O)N[C@@H](CC(=O)O)C(=O)N[C@@H](CCC(=O)O)C(=O)N[C@@H](CC(C)C)C(=O)N[C@@H](Cc1c[nH]cn1)C(=O)N[C@@H](CCCNC(=N)N)C(=O)N[C@@H](CC(C)C)C(=O)N[C@@H](CCC(N)=O)C(=O)N[C@@H](CC(=O)O)C(=O)N[C@@H](Cc1ccc(O)cc1)C(=O)N1CCC[C@H]1C(=O)N[C@@H](CCCNC(=N)N)C(=O)N[C@H](C(=O)N[C@@H](CC(=O)O)C(=O)N[C@H](C(=O)NCC(=O)N[C@@H](CO)C(=O)NCC(=O)N[C@@H](CO)C(=O)N1CCC[C@H]1C(N)=O)C(C)C)[C@@H](C)O [M43] ({C20 diacid-βAsp}-ASQLSTAVLGRLSDELHRLQDYPRTDVGSGSP-NH2) | Clear | Clear | -1.96 | 0.017 | No change (a decrease of less than 1% from the initial value to the detected content is denoted as "no change") | No change (a decrease of less than 1% from the initial value to the detected content is denoted as "no change")
3 | CC(C)C[C@H](NC(=O)[C@H](CCCNC(=N)N)NC(=O)CNC(=O)[C@H](CC(C)C)NC(=O)[C@@H](NC(=O)[C@H](C)NC(=O)[C@@H](NC(=O)[C@H](CO)NC(=O)[C@H](CC(C)C)NC(=O)[C@H](CCC(N)=O)NC(=O)[C@H](CO)NC(=O)[C@H](C)NC(=O)[C@H](CC(=O)O)NC(=O)CCCCCCCCCCCCCCCCC(=O)O)[C@@H](C)O)C(C)C)C(=O)N[C@@H](CO)C(=O)N[C@@H](CC(=O)O)C(=O)N[C@@H](CCC(=O)O)C(=O)N[C@@H](CC(C)C)C(=O)N[C@@H](Cc1c[nH]cn1)C(=O)N[C@@H](CCCNC(=N)N)C(=O)N[C@@H](CC(C)C)C(=O)N[C@@H](CCC(N)=O)C(=O)N[C@@H](CC(=O)O)C(=O)N[C@@H](Cc1ccc(O)cc1)C(=O)N1CCC[C@H]1C(=O)N[C@@H](CCCNC(=N)N)C(=O)N[C@H](C(=O)N[C@@H](CC(=O)O)C(=O)N[C@H](C(=O)NCC(=O)N[C@@H](CO)C(=O)NCC(=O)N[C@@H](CO)C(=O)N1CCC[C@H]1C(N)=O)C(C)C)[C@@H](C)O [M44] ({C18 diacid}-DASQLSTAVLGRLSDELHRLQDYPRTDVGSGSP-NH2) | Clear | Clear | -3.76 | 0.016 | -2.285% | -1.15%

Further lines, with some results ahead:

Row | Changes in characteristics or properties, 0d [1] | Changes in characteristics or properties, 7d [1] | Purity Change% (26d-0d) [1] [%] | EC50 [2] [nM] | Structure (SMILES) | Concentration change (7d-0d)/% [1] | Purity Change% (7d-0d) [1]
4 | Clear | Clear | -2.93 | 0.016 | CC(C)C[C@H](NC(=O)[C@H](CCCNC(=N)N)NC(=O)CNC(=O)[C@H](CC(C)C)NC(=O)[C@@H](NC(=O)[C@H](C)NC(=O)[C@@H](NC(=O)[C@H](CO)NC(=O)[C@H](CC(C)C)NC(=O)[C@H](CCC(N)=O)NC(=O)[C@H](CO)NC(=O)[C@H](C)NC(=O)[C@H](CCC(=O)O)NC(=O)CCCCCCCCCCCCCCCCC(=O)O)[C@@H](C)O)C(C)C)C(=O)N[C@@H](CO)C(=O)N[C@@H](CC(=O)O)C(=O)N[C@@H](CCC(=O)O)C(=O)N[C@@H](CC(C)C)C(=O)N[C@@H](Cc1c[nH]cn1)C(=O)N[C@@H](CCCNC(=N)N)C(=O)N[C@@H](CC(C)C)C(=O)N[C@@H](CCC(N)=O)C(=O)N[C@@H](CC(=O)O)C(=O)N[C@@H](Cc1ccc(O)cc1)C(=O)N1CCC[C@H]1C(=O)N[C@@H](CCCNC(=N)N)C(=O)N[C@H](C(=O)N[C@@H](CC(=O)O)C(=O)N[C@H](C(=O)NCC(=O)N[C@@H](CO)C(=O)NCC(=O)N[C@@H](CO)C(=O)N1CCC[C@H]1C(N)=O)C(C)C)[C@@H](C)O [M42] ({C18 diacid}-EASQLSTAVLGRLSDELHRLQDYPRTDVGSGSP-NH2) | -3.344% | No change (a decrease of less than 1% from the initial value to the detected content is denoted as "no change")
5 |  |  |  | 0.017 | CC(C)C[C@H](NC(=O)[C@H](CCCNC(=N)N)NC(=O)CNC(=O)[C@H](CC(C)C)NC(=O)[C@@H](NC(=O)[C@H](C)NC(=O)[C@@H](NC(=O)[C@H](CO)NC(=O)[C@H](CC(C)C)NC(=O)[C@H](CCC(N)=O)NC(=O)[C@H](CO)NC(=O)[C@H](C)NC(=O)CC[C@H](NC(=O)CCCCCCCCCCCCCCCCCCCCC(=O)O)C(=O)O)[C@@H](C)O)C(C)C)C(=O)N[C@@H](CO)C(=O)N[C@@H](CCC(=O)O)C(=O)N[C@@H](CCC(=O)O)C(=O)N[C@@H](CC(C)C)C(=O)N[C@@H](Cc1c[nH]cn1)C(=O)N[C@@H](CCCNC(=N)N)C(=O)N[C@@H](CC(C)C)C(=O)N[C@@H](CCC(N)=O)C(=O)N[C@@H](CC(=O)O)C(=O)N[C@@H](Cc1ccc(O)cc1)C(=O)N1CCC[C@H]1C(=O)N[C@@H](CCCNC(=N)N)C(=O)N[C@H](C(=O)N[C@@H](CC(=O)O)C(=O)N[C@H](C(=O)NCC(=O)N[C@@H](CO)C(=O)NCC(=O)N[C@@H](CO)C(=O)N1CCC[C@H]1C(N)=O)C(C)C)[C@@H](C)O [M65] ({C22 diacid-γGlu}-ASQLSTAVLGRLSEELHRLQDYPRTDVGSGSP-NH2) |  | 

Reference: patent EP4692114A1, “CALCITONIN ANALOGUE, AND DERIVATIVE THEREOF AND USE THEREOF” (Hangzhou Sciwind Biosciences Co., Ltd., priority 2023, dated 2024)
